These results are taken from patent US20260022142A1, “MACROCYCLIC IMMUNOMODULATORS” (Bristol-Myers Squibb Company, priority 2022, published 2026).

pIC50: −log10 of the molar value. Bridge positions count the residues as written; N and C are the ends. Square brackets hold non-standard residues; d marks the D form. Peptide text beside a SMILES is read from it. * marks the point of attachment. ξ: configuration not given here. Phe(3-CF3) = N[C@@H](Cc1cccc(C(F)(F)F)c1)C(=O)O; Ala(morpholin-4-yl) = N[C@@H](CN1CCOCC1)C(=O)O; Phe(4-COOH) = N[C@@H](Cc1ccc(C(=O)O)cc1)C(=O)O; Bip = N[C@@H](Cc1ccc(-c2ccccc2)cc1)C(=O)O; Phe(3-Me) = Cc1cccc(C[C@H](N)C(=O)O)c1; NH(CH2)12COOH = O=C(O)CCCCCCCCCCCCN*; Val(3-OH) = CC(C)(O)[C@H](N)C(=O)O; hArg = N=C(N)NCCCC[C@H](N)C(=O)O; 2Pal = N[C@@H](Cc1ccccn1)C(=O)O; 4Pal = N[C@@H](Cc1ccncc1)C(=O)O; Cha = N[C@@H](CC1CCCCC1)C(=O)O; Cit = NC(=O)NCCC[C@H](N)C(=O)O; Ile(3ξ) = CCC(C)[C@H](N)C(=O)O; aThr = C[C@H](O)[C@H](N)C(=O)O; Thr(3ξ) = CC(O)[C@H](N)C(=O)O; Phg = N[C@H](C(=O)O)c1ccccc1; dOrn = NCCC[C@@H](N)C(=O)O; Carboxymethyl = O=C(O)C*; Orn = NCCC[C@H](N)C(=O)O; Aun = NCCCCCCCCCCC(=O)O; Dab = NCC[C@H](N)C(=O)O; Dap = NC[C@H](N)C(=O)O; AEEA = NCCOCCOCC(=O)O

T1 sequence (Q15116 25-288): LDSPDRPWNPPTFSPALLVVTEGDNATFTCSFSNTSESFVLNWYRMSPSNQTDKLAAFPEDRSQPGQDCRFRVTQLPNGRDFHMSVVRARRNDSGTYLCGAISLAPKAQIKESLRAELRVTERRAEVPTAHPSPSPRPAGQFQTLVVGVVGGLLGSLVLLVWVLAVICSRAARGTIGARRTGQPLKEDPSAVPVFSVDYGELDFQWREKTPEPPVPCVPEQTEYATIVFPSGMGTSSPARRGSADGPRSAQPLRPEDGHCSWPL

The experiment concerns the target T1, PD-1/PD-L1 interaction (PE-labeled human PD-L1-Ig binding to Jurkat cell line over-expressing human PD-1) (Homo sapiens, UniProt Q15116).
T1 construct: expressed in transfected cells; host or cells: Jurkat
Description: Jurkat-PD-1 Cell Binding High-Content Screening Assay (CBA). The format is cell-based. The settings on record: Jurkat cell line over-expressing human PD-1; PE-labeled PD-L1-Ig 20 nM final; read-out: Jurkat hPD1-PDL1 IC50. The method in brief: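 Binding of fluorescent PD-L1-Ig (phycoerythrin on Ig tag, 20 nM final, 1 h) measured by high-content imaging of fixed, Hoechst-counterstained Jurkat-hPD-1 cells. Compound added 2 h at 37° C beforehand, in DMEM with 10% fetal calf serum.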
For `CC(C)C[C@H]1NC(=O)[C@H](CCCN)NC(=O)[C@H](C(C)C)NC(=O)[C@H](Cc2ccc(-c3ccccc3)cc2)NC(=O)[C@H](C(C)C)NC(=O)[C@H](Cc2c[nH]c3ccccc23)NC(=O)[C@H](CC(=O)O)NC(=O)[C@H](Cc2ccc(OCC(=O)O)cc2)NC(=O)[C@H](Cc2ccncc2)NC(=O)CSC[C@@H](C(=O)NCC(=O)NCCOCCOCC(=O)N[C@@H](CCCN)C(=O)NCCCCCCCCCCC(=O)O)NC(=O)[C@H](CCCN)NC(=O)[C@H](C(C)C)NC(=O)[C@H](CC2CCCCC2)NC(=O)[C@H](CC(N)=O)NC1=O` [Compound 3207] ({CH2CO}-[4Pal]Y(Carboxymethyl)DWV[Bip]V[Orn][dL]N[Cha]V[Orn]CG[AEEA][Orn][Aun]-OH; thioether N-14), the pIC50 (commonly the negative decadic logarithm of the IC50, by convention in mol/L) is 7.76.

As for `Cc1cccc(C[C@@H]2NC(=O)[C@H](CC(=O)O)NC(=O)[C@H](Cc3ccc(OCC(=O)O)cc3)NC(=O)[C@H](CN)NC(=O)CSC[C@@H](C(=O)N[C@@H](CCN)C(=O)NCCCCCCCCCCC(=O)O)NC(=O)[C@H](c3ccccc3)NC(=O)[C@H](C(C)C)NC(=O)[C@H](CC(C)C)NC(=O)[C@H](CCN)NC(=O)[C@@H](CC(C)C)NC(=O)[C@H](CCCN)NC(=O)[C@H](Cc3ccc(O)cc3)NC(=O)[C@H](Cc3ccc(-c4ccccc4)cc3)NC(=O)[C@H](C(C)C)NC2=O)c1` [Compound 2761] ({CH2CO}-[Dap]Y(Carboxymethyl)D[Phe(3-Me)]V[Bip]Y[Orn][dL][Dab]LV[Phg]C[Dab][Aun]-OH; thioether N-14), the negative-log IC50 (pIC50) was 6.81.

On to `Cc1cccc(C[C@@H]2NC(=O)[C@H](CC(=O)O)NC(=O)[C@H](Cc3ccc(OCC(=O)O)cc3)NC(=O)[C@H](CC(N)=O)NC(=O)CSC[C@@H](C(=O)N[C@@H](CCN)C(=O)NCCOCCOCC(=O)NCCCCCCCCCCC(=O)O)NC(=O)[C@H](CCCN)NC(=O)[C@H](C(C)C)NC(=O)[C@H](CC3CCCCC3)NC(=O)[C@H](CCN)NC(=O)[C@@H](CC(C)C)NC(=O)[C@H](CCCN)NC(=O)[C@H](Cc3ccc(O)cc3)NC(=O)[C@H](Cc3ccc(-c4ccccc4)cc3)NC(=O)[C@H](C(C)C)NC2=O)c1` [Compound 2697] ({CH2CO}-NY(Carboxymethyl)D[Phe(3-Me)]V[Bip]Y[Orn][dL][Dab][Cha]V[Orn]C[Dab][AEEA][Aun]-OH; thioether N-14), for which the negative logarithm of the IC50 (pIC50) is 8.31.

Turning to `CC(C)C[C@H]1NC(=O)[C@H](CCCN)NC(=O)[C@H](Cc2ccc(O)cc2)NC(=O)[C@H](Cc2ccc(-c3ccccc3)cc2)NC(=O)[C@H](Cc2ccc(O)cc2)NC(=O)[C@H](Cc2c[nH]c3ccccc23)NC(=O)[C@H](CC(=O)O)NC(=O)[C@H](Cc2ccc(OCC(=O)O)cc2)NC(=O)[C@H](C(C)O)NC(=O)CSC[C@@H](C(=O)N[C@H](CC(N)=O)C(=O)NCCCCCCCCCCC(=O)O)NC(=O)[C@H](C(C)O)NC(=O)[C@H](C(C)C)NC(=O)[C@H](CC2CCCCC2)NC(=O)[C@H](CCN)NC1=O` (stereo partly drawn) [Compound 3429] ({CH2CO}-[Thr(3ξ)]Y(Carboxymethyl)DWY[Bip]Y[Orn][dL][Dab][Cha]V[Thr(3ξ)]C[dN][Aun]-OH; thioether N-14), the pIC50 was 7.38.

As for `CC(C)C[C@@H]1NC(=O)[C@H](Cc2c[nH]c3ccccc23)NC(=O)[C@H](CC(=O)O)NC(=O)[C@H](Cc2ccc(OCC(=O)O)cc2)NC(=O)[C@H](CCCCNC(=N)N)NC(=O)CSC[C@@H](C(=O)NCCOCCOCC(=O)N[C@@H](CCN)C(=O)NCCCCCCCCCCC(=O)O)NC(=O)[C@H](CCCCN)NC(=O)[C@H](C(C)C)NC(=O)[C@H](CC2CCCCC2)NC(=O)[C@H](CCN)NC(=O)[C@@H](C)NC(=O)[C@H](CCN)NC(=O)[C@H](C(C)C)NC(=O)[C@H](Cc2ccc(-c3ccccc3)cc2)NC1=O` [Compound 3258] ({CH2CO}-[hArg]Y(Carboxymethyl)DWL[Bip]V[Dab][dA][Dab][Cha]VKC[AEEA][Dab][Aun]-OH; thioether N-14), the negative logarithm of the IC50 (pIC50) is 7.43.

Take `CC(C)C[C@H]1NC(=O)[C@H](CCCN)NC(=O)[C@H](Cc2ccc(C(=O)O)cc2)NC(=O)[C@H](Cc2ccc(-c3ccccc3)cc2)NC(=O)[C@H](Cc2ccc(C(=O)O)cc2)NC(=O)[C@H](Cc2cccc(C(F)(F)F)c2)NC(=O)[C@H](CC(=O)O)NC(=O)[C@H](Cc2ccc(OCC(=O)O)cc2)NC(=O)[C@H](CN2CCOCC2)NC(=O)CSC[C@@H](C(=O)N[C@@H](CCN)C(=O)NCCOCCOCC(=O)NCCOCCOCC(=O)NCCCCCCCCCCCCC(=O)O)NC(=O)[C@H](CC(=O)O)NC(=O)[C@H](C(C)(C)O)NC(=O)[C@H](CC2CCCCC2)NC(=O)[C@H](CCN)NC1=O` [Compound 2920] ({CH2CO}-[Ala(morpholin-4-yl)]Y(Carboxymethyl)D[Phe(3-CF3)][Phe(4-COOH)][Bip][Phe(4-COOH)][Orn][dL][Dab][Cha][Val(3-OH)]DC[Dab][AEEA][AEEA]-{NH(CH2)12COOH}; thioether N-14): the negative logarithm of the IC50 (pIC50) is 7.59.

Regarding `Cc1cccc(C[C@@H]2NC(=O)[C@H](CC(=O)O)NC(=O)[C@H](Cc3ccc(OCC(=O)O)cc3)NC(=O)[C@H](CN)NC(=O)CSC[C@@H](C(=O)N[C@@H](CCCCN)C(=O)NCCCCCCCCCCC(=O)O)NC(=O)[C@H](CCCNC(=N)N)NC(=O)[C@H](C(C)C)NC(=O)[C@H](CC3CCCCC3)NC(=O)[C@H](CCN)NC(=O)[C@@H](CC(C)C)NC(=O)[C@H](CCCN)NC(=O)[C@H](C(C)C)NC(=O)[C@H](Cc3ccc(-c4ccccc4)cc3)NC(=O)[C@H](C(C)C)NC2=O)c1` [Compound 2536] ({CH2CO}-[Dap]Y(Carboxymethyl)D[Phe(3-Me)]V[Bip]V[Orn][dL][Dab][Cha]VRCK[Aun]-OH; thioether N-14), the pIC50 was 8.02.

Take `CC(C)C[C@H]1NC(=O)[C@H](CCCN)NC(=O)[C@H](C(C)C)NC(=O)[C@H](Cc2ccc(-c3ccccc3)cc2)NC(=O)[C@H](C(C)C)NC(=O)[C@H](Cc2c[nH]c3ccccc23)NC(=O)[C@H](CC(=O)O)NC(=O)[C@H](Cc2ccc(OCC(=O)O)cc2)NC(=O)[C@H](CN)NC(=O)CSC[C@@H](C(=O)NCCOCCOCC(=O)N[C@@H](CCCCN)C(=O)NCCCCCCCCCCC(=O)O)NC(=O)[C@H]([C@H](C)O)NC(=O)[C@H](C(C)C)NC(=O)[C@H](CC2CCCCC2)NC(=O)[C@H](CC(N)=O)NC1=O` [Compound 3164] ({CH2CO}-[Dap]Y(Carboxymethyl)DWV[Bip]V[Orn][dL]N[Cha]V[aThr]C[AEEA]K[Aun]-OH; thioether N-14): the negative logarithm of the IC50 (pIC50) is 7.52.

Take `Cc1cccc(C[C@@H]2NC(=O)[C@H](CC(=O)O)NC(=O)[C@H](Cc3ccc(OCC(=O)O)cc3)NC(=O)[C@H](CN)NC(=O)CSC[C@@H](C(=O)NCCOCCOCC(=O)N[C@@H](CC(=O)O)C(=O)NCCCCCCCCCCC(=O)O)NC(=O)[C@H]([C@@H](C)O)NC(=O)[C@H](C(C)C)NC(=O)[C@H](CC3CCCCC3)NC(=O)[C@H](CCN)NC(=O)[C@@H](CC(C)C)NC(=O)[C@H](CCCN)NC(=O)[C@H](CCCNC(N)=O)NC(=O)[C@H](Cc3ccc(-c4ccccc4)cc3)NC(=O)[C@H](C(C)C)NC2=O)c1` [Compound 1032] ({CH2CO}-[Dap]Y(Carboxymethyl)D[Phe(3-Me)]V[Bip][Cit][Orn][dL][Dab][Cha]VTC[AEEA]D[Aun]-OH; thioether N-14): the pIC50 is 8.21.

On to `Cc1cccc(C[C@@H]2NC(=O)[C@H](CC(=O)O)NC(=O)[C@H](Cc3ccc(OCC(=O)O)cc3)NC(=O)[C@H](CN)NC(=O)CSC[C@@H](C(=O)N[C@@H](CCN)C(=O)NCCCCCCCCCCC(=O)O)NC(=O)[C@H](Cc3ccccn3)NC(=O)[C@H](C(C)C)NC(=O)[C@H](CC(C)C)NC(=O)[C@H](CCN)NC(=O)[C@@H](CC(C)C)NC(=O)[C@H](CCCN)NC(=O)[C@H](Cc3ccc(O)cc3)NC(=O)[C@H](Cc3ccc(-c4ccccc4)cc3)NC(=O)[C@H](C(C)C)NC2=O)c1` [Compound 2763] ({CH2CO}-[Dap]Y(Carboxymethyl)D[Phe(3-Me)]V[Bip]Y[Orn][dL][Dab]LV[2Pal]C[Dab][Aun]-OH; thioether N-14), for which the negative-log IC50 (pIC50) was 7.26.

Turning to `Cc1cccc(C[C@@H]2NC(=O)[C@H](CC(=O)O)NC(=O)[C@H](Cc3ccc(OCC(=O)O)cc3)NC(=O)[C@H](Cc3ccncc3)NC(=O)CSC[C@@H](C(=O)N[C@@H](CCCN)C(=O)NCCCCCCCCCCC(=O)O)NC(=O)[C@H](CCCN)NC(=O)[C@H](C(C)C)NC(=O)[C@H](CC3CCCCC3)NC(=O)[C@H](CCN)NC(=O)[C@@H](CC(C)C)NC(=O)[C@H](CCCN)NC(=O)[C@H](C(C)C)NC(=O)[C@H](Cc3ccc(-c4ccccc4)cc3)NC(=O)[C@H](C(C)C)NC2=O)c1` [Compound 3348] ({CH2CO}-[4Pal]Y(Carboxymethyl)D[Phe(3-Me)]V[Bip]V[Orn][dL][Dab][Cha]V[Orn]C[Orn][Aun]-OH; thioether N-14), the negative-log IC50 (pIC50) is 7.89.

For the compound `Cc1cccc(C[C@@H]2NC(=O)[C@H](CC(=O)O)NC(=O)[C@H](Cc3ccc(OCC(=O)O)cc3)NC(=O)[C@H](CCCNC(=N)N)NC(=O)CSC[C@@H](C(=O)N[C@@H](CCCCN)C(=O)NCCCCCCCCCCC(=O)O)NC(=O)[C@H](C(C)O)NC(=O)[C@H](C(C)C)NC(=O)[C@H](CC3CCCCC3)NC(=O)[C@H](CCN)NC(=O)[C@@H](CC(C)C)NC(=O)[C@H](CCCN)NC(=O)[C@H](Cc3ccc(O)cc3)NC(=O)[C@H](Cc3ccc(-c4ccccc4)cc3)NC(=O)[C@H](C(C)C)NC2=O)c1` (stereo partly drawn) [Compound 3473] ({CH2CO}-RY(Carboxymethyl)D[Phe(3-Me)]V[Bip]Y[Orn][dL][Dab][Cha]V[Thr(3ξ)]CK[Aun]-OH; thioether N-14), the pIC50 is 7.82.

As for `CCC(C)[C@@H]1NC(=O)[C@H](Cc2ccc(-c3ccccc3)cc2)NC(=O)[C@H](C(C)C)NC(=O)[C@H](Cc2c[nH]c3ccccc23)NC(=O)[C@H](CC(=O)O)NC(=O)[C@H](Cc2ccc(OCC(=O)O)cc2)NC(=O)[C@H](C(C)O)NC(=O)CSC[C@@H](C(=O)N[C@H](CCCN)C(=O)NCCOCCOCC(=O)NCCCCCCCCCCC(=O)O)NC(=O)[C@H](CO)NC(=O)[C@H](C(C)C)NC(=O)[C@H](CC(C)C)NC(=O)[C@H](CCN)NC(=O)[C@@H](CC(C)C)NC(=O)[C@H](CCCN)NC1=O` (stereo partly drawn) [Compound 3090] ({CH2CO}-[Thr(3ξ)]Y(Carboxymethyl)DWV[Bip][Ile(3ξ)][Orn][dL][Dab]LVSC[dOrn][AEEA][Aun]-OH; thioether N-14), the negative logarithm of the IC50 (pIC50) was 7.00.
